Data set [1] deals with human PBM cells. As to conditions: read-out: Cytotoxicity IC50 PBM; uninfected PHA-stimulated human PBM cells.
Data set [2] concerns HIV-1/LAI. Type of data set: cell-based. As to conditions: for EC50: read-out: Anti-HIV-1 activity in human PBM cells EC50, HIV-1/LAI, median effect method; for activity against HIV-1 (in words): human PBM cells.
Data set [3] in a line: in vitro. Conditions: human, uninfected PHA-stimulated human PBM cells.
Data set [4] in a line: in vitro. As to conditions: human.
Data set [5] in a line: in vitro. As to conditions: African green monkey, Vero (African green monkey kidney) cells.
Data set [6] has as its system CEM (T-lymphoblastoid cell line).
Data set [7] deals with Vero (African green monkey kidney) cells. As to conditions: read-out: Cytotoxicity IC50 Vero.
In data set [8] the test system is HIV-1. Conditions: ref De Corte 2005; Pauwels et al. 1993; cited from earlier work.

SMILES strings stand for the structures. Entries after “also recorded” stand apart in the source; their conditions may differ.

The term IC50 denotes the concentration at which inhibition is half-maximal.

For the molecule `Cc1cn([C@H]2C[C@H](N=[N+]=[N-])[C@@H](CO)O2)c(=O)[nH]c1=O` [AZT, 3′-Azido-2′,3′-dideoxythymidine, reference compound], the IC50 in data set [1] is above 100 µM.
Turning to `Cc1ccc(NC(C#N)c2ccc(OCc3ccc(Cl)cc3Cl)cc2)cc1` (stereo not shown) [Compound 2h, 2-[4-(2,4-Dichlorobenzyloxy)phenyl]-2-(4-toluidino)acetonitrile], the EC50 in data set [2] came out at 3.1 µM. Further, the IC50 in data set [3] came out at 15 µM; in data set [4], 11.7 µM; in data set [5] it was 39.7 µM.
`Cc1ccc(N2C(=O)CCC2(C#N)c2ccc(OC(C)C)cc2)cc1` (stereo not shown) [Compound 3e, 2-(4-Isopropoxyphenyl)-1-(4-methylphenyl)-5-oxo-2-pyrrolidinecarbonitrile]: the IC50 in data set [3] is above 100 µM; in data set [4], 17 µM; in data set [5], 46.5 µM.
In the case of `Cc1ccc(N2C(=O)CCC2(C#N)c2ccc(OCc3ccccc3)cc2)cc1` (stereo not shown) [Compound 3g, 2-(4-Benzyloxyphenyl)-1-(4-methylphenyl)-5-oxo-2-pyrrolidinecarbonitrile], the half-maximal inhibitory concentration (IC50) in data set [3] was above 100 µM; in data set [4], 30.3 µM; in data set [5] it was 53.9 µM.
Regarding `Cc1ccc(N2C(=O)CCC2(C#N)c2ccc(OCc3ccc(Cl)cc3Cl)cc2)cc1` (stereo not shown) [Compound 3h, 2-[4-(2,4-Dichlorobenzyloxy)phenyl]-1-(4-methylphenyl)-5-oxo-2-pyrrolidinecarbonitrile], the 50% inhibitory concentration (IC50) in data set [3] came to 9.7 µM; in data set [4] it was 6.6 µM; in data set [5], 21.8 µM.
Regarding `Cc1cc(C)cc(NC(C(N)=O)c2c(Cl)cccc2Cl)c1` (stereo not shown) [Compound 4, 2-(2,6-Dichlorophenyl)-2-(3,5-dimethylanilino)acetamide], the “activity against HIV-1 (in words)” value in data set [2] is “very potent; also recorded: very active”. The IC50 in data set [3] worked out at 6.1 µM; in data set [4] it was 5.8 µM; in data set [5] it was 68.7 µM.
Regarding `Cc1ccc(N2C(=O)CCC2(CN)c2ccccc2)cc1` (stereo not shown) [Compound 5a, 5-Aminomethyl-1-(4-methylphenyl)-5-phenyl-2-pyrrolidinone], the values for the IC50 in data set [3], in data set [4] and in data set [5] were 54.1 µM, 53.6 µM and above 100 µM, respectively.
Taken in the same sequence, the figures for `Cc1ccc(N2C(=O)CCC2(CN)c2ccc(OCc3ccccc3)cc2)cc1` (stereo not shown) [Compound 5f, 5-Aminomethyl-5-(4-benzyloxyphenyl)-1-(4-methylphenyl)-2-pyrrolidinone] were 15.9 µM, 33.7 µM and 12.3 µM.
With `NCC1(c2ccccc2)CCCN1C(=O)c1ccc(Br)cc1` (stereo not shown) [Compound 10], in data set [2], the “activity against HIV-1 (in words)” value is on record as “no inhibition”. Also, in data set [2], the EC50 is above 100 µM. Besides, the EC90 in data set [2] (read-out: Anti-HIV-1 activity in human PBM cells EC90, HIV-1/LAI, median effect method) was above 100 µM. Besides, the half-inhibitory concentration (IC50) in data set [1] was above 100 µM; in data set [6], 96.1 µM; in data set [7] it was above 100 µM.
Consider `CC(=O)c1ccc(C)cc1NC(C(N)=O)c1c(Cl)cccc1Cl` (stereo not shown) [loviride], for which, in data set [8], the “inhibitory concentration relative to the cytotoxic concentration (fold less)” value was 10,000 fold.

(Values after publication PMC8301260 (Medicinal chemistry research : an international journal for …, 2016).)
